Measured values from paper PMC9862186 (International Journal of Molecular Sciences, 2023).

Key:
in vivo = experiment: in vivo
Description: A saline solution (0.9% NaCl) was added to a mixture of cinnamaldehyde (density = 1.05 g/mL) and Cremophor® RH 40 (1:1 v/v) in order to obtain a 12.5 mg/mL cinnamaldehyde emulsion in the presence of ethanol (10% of final volume). A group (n = 4) of male Wistar rats (200–250 g) fasted for 24 h was anesthetized during the experimental period and received 0.4 mL via a femoral intravenous infusion (rate = 0.2 mL/min; 2 min) of 12.5 mg/mL cinnamaldehyde emulsion (20 mg/kg cinnamaldehyde dose).
At the end of the infusions and at fixed time points, CSF samples (50 μL) were withdrawn and blood samples (100 μL) were collected. The CSF was withdrawn using the cisternal puncture method described by van den Berg et al., which requires a single needle stick and allows the collection of serials (40–50 μL) CSF samples that are virtually blood-free. A total volume of about a maximum of 150 μL of CSF/rat (i.e., three 50 μL samples/rat) was collected during the experimental session, choosing the time points (n = 3–5, taking into account a maximum of three collections per rat) in order to allow the restoring of the CSF physiological volume.
The samples were centrifuged at 12,500× g for 5 min, then about 300 μL of supernatant were withdrawn and further centrifuged. […] As a control, a blood sample (100 μL) was collected by each rat before the administrations of the drugs. The control samples were immediately added to 300 μL of ice-cold CH3CN in the absence of internal standard, then treated as described above.
For cinnamaldehyde analysis the blood samples were hemolyzed immediately after their collection with 500 μL of ice-cold water, and then 50 μL of 10% sulfosalicylic acid and 50 μL of internal standard (100 μM carbazole dissolved in a water-methanol mixture 50:50 v/v) was added. The samples were extracted twice with 1 mL of water-saturated ethyl acetate, and, after centrifugation at 12,500× g for 10 min, the organic layer was reduced to dryness under a mild nitrogen stream at room temperature. Then, 200 μL of a water-acetonitrile mixture (50:50 v/v) were added, and after centrifugation, 10 μL were analyzed via HPLC (see below) for cinnamaldehyde detection. As a control, a blood sample (100 μL) was collected by each rat before the administration of the drug. The control samples were treated as described above in the absence of internal standard.
In particular, all the AUC values referred to the bloodstream were calculated by the trapezoidal method within the last time point detected, and the remaining area was obtained as the ratio between the compound concentration detected at the last time point and the elimination constant (kel), which was obtained from the slope of the semilogarithmic plots (−slope × 2.3). The clearance (Cl) and distribution volume (Vd) values were calculated according to the non-compartmental model as the ratios “dose/AUC” and “Cl/kel”, respectively, where kel is the elimination constant obtained by the slope of semilogarithmic plot.
The chromatographic apparatus consisted of a modular system (model LC-10 AD VD pump and model SPD-10A VP variable wavelength UV−vis detector; Shimadzu, Kyoto, Japan) and an injection valve with 20 μL sample loop (model 7725; Rheodyne, IDEX, Torrance, CA, USA). Separations were performed at room temperature on a 5 μm Hypersil BDS C-18 column (150 mm × 4.6 mm i.d.; Alltech Italia Srl, Milan, Italy) equipped with a guard column packed with the same Hypersil material. The volume injection was 10 μL. Data acquisition and processing were performed on a personal computer using CLASS-VP Software, version 7.2.1 (Shimadzu Italia, Milan, Italy).
The detector was set at 205 nm.

PC12 cells = experiment: Dopamine release from neuronal differentiated PC12 cells (ELISA); format: cell-based, rat
Description: PC12 cell line (RRID:CVCL_0481), derived from rat adrenal gland pheochromocytoma, was a kind gift from Dr Federica Brugnoli from the Department of Translational Medicine, University of Ferrara, Ferrara (Italy). The cells were grown in RPMI-1640 (HiGlutaXL) medium (Microtech, Naples, Italy), supplemented with 100 µg/mL streptomycin and 100 IU/mL penicillin, 10% horse serum (HS), and 5% fetal bovine serum (FBS). PC12 cells were gently removed from the 4 µg/cm^2 collagen IV-coated flask with a rubber scraper, transferred as cell suspension into a Falcon tube and resuspended through a sterile tip to avoid any clumping, then split into separate flasks twice weekly. To differentiate neuronal phenotypes, PC12 cells were seeded in 4 µg/cm^2 collagen IV-coated 12-well plates at a density of 5000 cells/well, and they were then left to adhere to the well for 24 h. […] All the proliferative and differentiated cultures were maintained at 37 °C in a humidified 5% CO2 atmosphere.
PC12 cells differentiated to neuronal-like phenotype in collagen IV-treated 12-well plates, were first synchronized all to the same circadian phase and cell cycle by a serum shock (50% HS and 50% DMEM HiGlutaXL) for 2 h at 37 °C [49] to achieve a synchronous release of dopamine. Synchronization medium was then aspirated off, cells were washed with 3 × 1 mL and equilibrated for 15 min at 37 °C in 1 mL of Krebs Ringer HEPES (KRH) physiological buffer, following the recipe of Mount et al. (25 mM HEPES/Tris, pH 7.4, 1.2 mM KH2PO4, 125 mM NaCl, 4.8 mM KCl, 1.2 mM MgSO4, 2.2 mM CaCl2, 5.6 mM glucose, 1.0 mM ascorbic acid, 10 µM pargyline, 1.0 µM nomifensine). […] To remove cell debris, all samples of 1 mL incubation KRH at the end of treatments were centrifuged at 1000× g for 20 min at 4 °C and stored at −20 °C until dopamine levels were determined by ELISA assay.
Dopamine levels in 1 mL incubation KRH buffer were detected by means of an ELISA assay, based on the […] ELISA principle for detection of dopamine, following manufacturer’s instructions (IBL International, Hamburg, Germany–catalog no: RE59161; purchased from Tecan Italia S.r.I, Milan, Italy). After the substrate reaction, the intensity of the developed color was proportional to the amount of dopamine, detected at 450 nm using a microplate reader spectrophotometer (Sunrise® Microplate Reader, Tecan Trading AG, Männedorf, Switzerland). Results of samples were determined directly using the standard curve. Results are presented as mean ± SE values of four independent experiments. Data were plotted and analyzed with GraphPad software (Prism, version 7.0, San Diego, CA, USA).

rats = settings: cited from earlier work
[1] = rats, cited from earlier work
[2] = male, Wistar, rat, in vivo, iv, 20 mg/kg

Q: Which Vd (in vivo; male, Wistar, rat, in vivo, iv) does the source give for `C=CCc1ccc(O)c(OC)c1` [Eugenol] here?
A: Its Vd is 3.21 ± 0.247 L/kg.

Q: And the clearance (in vivo; male, Wistar, rat, in vivo, iv)?
A: The clearance was 114 ± 2 mL/min/kg.

Q: What about the half-life (in vivo; male, Wistar, rat, in vivo, iv) of the same compound?
A: Its half-life is 19.4 ± 2.1 min.

Q: What about the concentration at 5 min (in vivo; [2]) of the same compound?
A: Its concentration at 5 min is 3600 ± 200 ng/mL.

Q: What about the concentration at 10 min (in vivo; [2]) of the same compound?
A: The concentration at 10 min was 2900 ± 100 ng/mL.

Q: And the k el (in vivo; male, Wistar, rat, in vivo, iv, kel: pseudo first order kinetic elimination rate constant, rat blood, iv 20 mg/kg (eugenol, cinnamaldehyde), 100 mg/kg (D-limonene), eugenol value terminal)?
A: Its k el is 0.0006 s⁻¹.

Q: What about the “C0: concentration in the bloodstream at the end of infusion” value (in vivo; rat blood, iv infusion 2 min, 20 mg/kg eugenol and cinnamaldehyde, 100 mg/kg D-limonene, mean ± SE, n = 4) of the same compound?
A: Its value is 16500 ± 200 ng/mL.

Q: What about the “effect on dopamine release over pre-treatment baseline” value (PC12 cells; 25 µM, 5, 15, 30, 60 and 120 min, baseline 393 ± 12 pg/mL, p < 0.001 at 5, 15, 120 min, p < 0.05 at 30, 60 min) of the same compound?
A: The value was “statistically significant increase”.

Q: And the “incubation time with the higher effect on dopamine release” value (PC12 cells; 25 µM, time course 5, 15, 30, 60, 120 min, U-shaped curve)?
A: The value was 120 min.

Q: And the “concentration giving the lower effect on dopamine release, still significant vs. basal” value (PC12 cells; 0.5, 1, 2, 5 and 25 µM for 5 min, basal release 947 ± 102 pg/mL)?
A: The value was 5 µM.

Q: And the “oral LD50” value (rats; oral)?
A: Its value is “about 2 g/kg”.

Q: And the “intravenous doses inducing anesthetic effects without relevant side effects” value (rats; rat, in vivo, iv)?
A: Its value is “up to 60 mg/kg”.

Q: What about the “t1/2 of the second elimination phase” value ([1]; iv eugenol) of the same compound?
A: The value was 13 to 20 min.

Q: What about the Cmax ([1]; oral 40 mg/kg) of the same compound?
A: Its Cmax is “about 0.25 μg/mL”.
